# Source: PMC6461439, “Enzyme activity and selectivity filter stability of ancient TRPM2 channels were simultaneously lost in early vertebrates” (eLife, 2019)
# What was measured:
# nvTRPM2 [1] = biological target: T1, nvTRPM2 (Nematostella vectensis, UniProt A7T1N0, E1443I/F1444L)
# T1 construct: gene TRPM2
# nvTRPM2 [2] = biological target: T2, nvTRPM2 (Nematostella vectensis, UniProt A7T1N0, E1446K/E1447K)
# T2 construct: gene TRPM2
# T2 sequence (A7T1N0 whole entry E1446K/E1447K): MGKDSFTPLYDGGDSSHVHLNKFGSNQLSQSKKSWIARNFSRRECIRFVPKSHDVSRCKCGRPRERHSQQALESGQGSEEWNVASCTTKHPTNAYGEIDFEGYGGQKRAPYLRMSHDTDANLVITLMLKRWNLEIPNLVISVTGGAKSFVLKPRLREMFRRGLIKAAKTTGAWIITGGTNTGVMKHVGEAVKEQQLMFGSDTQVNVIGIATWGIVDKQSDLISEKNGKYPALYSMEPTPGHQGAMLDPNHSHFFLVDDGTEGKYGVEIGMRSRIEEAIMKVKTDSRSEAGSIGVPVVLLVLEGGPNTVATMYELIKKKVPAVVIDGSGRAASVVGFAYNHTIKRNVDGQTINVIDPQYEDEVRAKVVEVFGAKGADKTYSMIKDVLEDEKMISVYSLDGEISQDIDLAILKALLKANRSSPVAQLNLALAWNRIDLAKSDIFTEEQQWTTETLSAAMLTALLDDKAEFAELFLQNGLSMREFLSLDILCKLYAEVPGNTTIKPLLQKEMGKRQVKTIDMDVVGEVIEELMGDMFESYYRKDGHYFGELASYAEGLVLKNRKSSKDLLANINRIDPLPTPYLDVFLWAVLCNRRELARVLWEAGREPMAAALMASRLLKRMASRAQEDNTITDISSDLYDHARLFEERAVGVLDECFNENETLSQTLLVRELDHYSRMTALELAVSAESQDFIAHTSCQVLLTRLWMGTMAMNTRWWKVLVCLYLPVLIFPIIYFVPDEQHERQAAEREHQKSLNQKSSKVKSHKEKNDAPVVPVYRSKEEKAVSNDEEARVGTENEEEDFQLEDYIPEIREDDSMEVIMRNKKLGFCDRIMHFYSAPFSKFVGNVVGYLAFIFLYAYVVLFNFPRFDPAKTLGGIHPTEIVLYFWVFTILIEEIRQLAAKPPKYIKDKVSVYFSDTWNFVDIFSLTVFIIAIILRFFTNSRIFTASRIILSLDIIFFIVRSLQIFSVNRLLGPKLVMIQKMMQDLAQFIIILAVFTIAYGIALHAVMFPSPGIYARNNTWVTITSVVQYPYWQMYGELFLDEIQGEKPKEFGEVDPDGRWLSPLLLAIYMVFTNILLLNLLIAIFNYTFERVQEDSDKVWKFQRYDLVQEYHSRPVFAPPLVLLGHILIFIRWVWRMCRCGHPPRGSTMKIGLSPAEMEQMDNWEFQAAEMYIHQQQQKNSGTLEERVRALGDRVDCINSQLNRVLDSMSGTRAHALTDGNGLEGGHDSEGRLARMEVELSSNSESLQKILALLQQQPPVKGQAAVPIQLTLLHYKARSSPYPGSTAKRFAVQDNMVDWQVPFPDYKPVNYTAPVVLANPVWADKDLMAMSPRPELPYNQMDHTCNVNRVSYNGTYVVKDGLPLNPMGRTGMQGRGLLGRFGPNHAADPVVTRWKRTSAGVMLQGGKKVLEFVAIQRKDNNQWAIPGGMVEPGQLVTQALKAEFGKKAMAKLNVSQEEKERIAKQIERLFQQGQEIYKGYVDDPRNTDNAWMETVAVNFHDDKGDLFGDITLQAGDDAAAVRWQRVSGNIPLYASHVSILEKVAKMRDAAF
# T1 sequence (A7T1N0 whole entry E1443I/F1444L): as the sequence (A7T1N0 whole entry E1446K/E1447K) above, with E1443I, F1444L, K1446E, K1447E counted along it
smiles,measurement,setting,value
Nc1ncnc2c1ncn2[C@@H]1O[C@H](COP(=O)(O)OP(=O)(O)OC[C@H]2OC(O)[C@H](O)[C@@H]2O)[C@@H](O)[C@H]1O (some centres unmarked) [ADPR],EC50,nvTRPM2 [1],~2000 nM
same,EC50,nvTRPM2 [2],~2000 nM
